The test system of one data set is E. coli M 138. Put plainly: Antibacterial activity (MIC), agar dilution per CLSI. Format: cell-based. Conditions: Escherichia coli, M138. As for the experimental part: (§1) The biological activity of representative compounds according to the invention against various bacterial strains was investigated. In a typical study, overnight grown bacterial cultures were diluted appropriately and inoculated on the agar media containing doubling dilutions of the test compounds. Observation for growth or no growth was performed after 16-20 hours of incubation at 35±2° C. in ambient air. The overall procedure was performed as per Clinical and Laboratory Standards Institute (CLSI) recommendations (Clinical and Laboratory Standards Institute (CLSI), Performance Standards for Antimicrobial Susceptibility Testing, 20th Informational Supplement, M 100-S20, Volume 30, No. 1, 2010).

Another data set relates to E. coli 13353. Described as above. Particulars: Escherichia coli. In kind it is cell-based. The method, then:
as §1

For a further data set, the system named is E. coli 13352. The data set is described as above. In kind it is cell-based. Particulars: Escherichia coli. As for the experimental part:
as §1

In another data set the test system is K. pneumoniae H522. Described as above. Format: cell-based. Particulars: Klebsiella pneumoniae. As for the experimental part:
as §1

The next data set relates to K. pneumoniae H525. Described as above. Format: cell-based. Conditions: Klebsiella pneumoniae. As for the experimental part: as §1
Data set [1] has as its system K. pneumoniae ATCC 700603. Described as above. In kind it is cell-based. Particulars: Klebsiella pneumoniae, ATCC700603. The method, then:
as §1

The subject of another data set is K. pneumoniae H523. The description is as above. Conditions: Klebsiella pneumoniae. Format: cell-based. As for the experimental part:
as §1

For another data set, the system named is E. coli 7MP. The description is as above. Format: cell-based. Particulars: Escherichia coli. The method, then: as §1
Another data set deals with E. coli M 50. The description is as above. Conditions: Escherichia coli, M50. Format: cell-based. As for the experimental part: as §1
For a further data set, the system named is E. coli 13351. Described as above. Conditions: Escherichia coli. Format: cell-based. As for the experimental part:
as §1

The subject of the next data set is K. pneumoniae H521. The description is as above. In kind it is cell-based. Conditions: Klebsiella pneumoniae. As for the experimental part:
as §1

The subject of a further data set is E. coli M 36. Described as above. Format: cell-based. Conditions: Escherichia coli, M36. As for the experimental part: as §1
Another data set deals with E. coli M 49. Described as above. Format: cell-based. Particulars: Escherichia coli, M49. The method, then:
as §1

Data set [2] concerns E. coli strain M50 (CMY, DHA). As to the kind of experiment: Time-dependent bacterial kill study. In kind it is cell-based. Particulars: initial count 7.18 log10 CFU/ml. The method, then: In these studies, the initial bacterial count (at 0 hours) was 7.18 log10 CFU/ml. In general, 1, 2 and 3 log bacterial kill over initial count corresponds to […] bactericidal effect. In a typical time-dependent bacterial kill studies, freshly grown bacterial cultures were diluted to target cell density (initial starting inoculum) in Cation adjusted Muller Hinton broth medium (BD, USA). The antibacterial agents (either alone or in combination) at the required concentrations were added into the culture-containing medium. The sample flasks were incubated under shaking condition (120 rpm) at 37° C. Enumeration of viable bacterial count was undertaken periodically by diluting the sample in normal saline and plating on to the Tryptic Soya Agar plates (BD, USA). The plates were incubated for 24 hours to estimate viable bacterial count. The results are expressed in terms of Log10 CFU per ml.

Where [3] appears, read: 2 hours, antibacterial agent alone 8 μg/ml.
[4] abbreviates: 4 hours, antibacterial agent alone 8 μg/ml.
Where [5] appears, read: 6 hours, antibacterial agent alone 8 μg/ml.
Where [6] appears, read: 8 hours, antibacterial agent alone 8 μg/ml.

Values after ≈ are worked out from the molar mass of the structure shown.

In general, melting point refers to the temperature of the solid-liquid transition. Broadly, the MIC is the lowest concentration found to suppress growth. As to `O=C(NOC[C@@H]1C[C@@H](F)CN1)[C@@H]1CC[C@@H]2CN1C(=O)N2OS(=O)(=O)O` [Example 2, (2S, 5R)-N-{[(2S, 4R)-4-fluoropyrrolidin-2-yl]methyloxy}-7-oxo-6-(sulfooxy)-1,6-diazabicyclo[3.2.1]octane-2-carboxamide], the melting point is 160 to 163 °C (dec.). Moreover, in the data set with E. coli M 138, the lowest concentration to inhibit growth (MIC) was 2 µg/mL (≈ 5.23 µM). Also, the minimum inhibitory concentration (MIC) against E. coli 13353 was determined as 1 µg/mL (≈ 2.62 µM). Further, the MIC in the data set on E. coli 13352 stood at 2 µg/mL (≈ 5.23 µM). In the data set on K. pneumoniae H522, the MIC is 4 µg/mL (≈ 10.5 µM). Besides, in the data set on K. pneumoniae H525, it took 4 µg/mL (≈ 10.5 µM) to inhibit growth (MIC). The molecule further came in with an MIC in data set [1] of over 32 µg/mL. This molecule also returned a minimum inhibitory concentration (MIC) with K. pneumoniae H523 of 4 µg/mL (≈ 10.5 µM). The molecule further returned a minimum inhibitory concentration (MIC) in the data set on E. coli 7MP of 2 µg/mL (≈ 5.23 µM). Moreover, the minimum inhibitory concentration (MIC) against E. coli M 50 turned out to be 2 µg/mL (≈ 5.23 µM). In the data set with E. coli 13351, the minimum inhibitory concentration (MIC) worked out at 1 µg/mL (≈ 2.62 µM). The minimum inhibitory concentration (MIC) against K. pneumoniae H521 was 4 µg/mL (≈ 10.5 µM). In the data set with E. coli M 36, this molecule returned a minimal inhibitory concentration (MIC) of 1 µg/mL (≈ 2.62 µM). In the data set with E. coli M 49, this molecule yielded an MIC of 4 µg/mL (≈ 10.5 µM).
As for `COCC1=C(C(=O)O)N2C(=O)[C@@H](NC(=O)/C(=N\OC)c3csc(N)n3)[C@H]2SC1` [Cefpodoxime], the Bacterial count in [2] (setting [3]) was found to be 7.95 Log10 CFU per ml; in [2] (setting [4]), 8.70 Log10 CFU per ml; in data set [2] (setting [5]), 8.95 Log10 CFU per ml; in data set [2] (setting [6]), 9.30 Log10 CFU per ml.
The matching figures for `Nc1nc(/C(=C/CC(=O)O)C(=O)N[C@@H]2C(=O)N3C(C(=O)O)=CCS[C@H]23)cs1` [Ceftibuten]: 7.98 Log10 CFU per ml, 8.30 Log10 CFU per ml, 8.74 Log10 CFU per ml and 9.48 Log10 CFU per ml.
The matching figures for `CO/N=C(\C(=O)N[C@@H]1C(=O)N2C(C(=O)[O-])=C(C[N+]3(C)CCCC3)CS[C@H]12)c1csc(N)n1` [Cefepime]: 7.85 Log10 CFU per ml, 8.65 Log10 CFU per ml, 8.90 Log10 CFU per ml and 9.0 Log10 CFU per ml.
Regarding `O=C(NOC[C@H]1C[C@H](F)CN1)[C@@H]1CC[C@@H]2CN1C(=O)N2OS(=O)(=O)O` [Example 3, (2S, 5R)-N-{[(2R, 4S)-4-fluoropyrrolidin-2-yl]methyloxy}-7-oxo-6-(sulfooxy)-1,6-diazabicyclo[3.2.1]octane-2-carboxamide], the melting point is 175 to 178 °C (dec.). Moreover, the lowest concentration to inhibit growth against E. coli M 138 (MIC) was 1 µg/mL (≈ 2.62 µM). In the data set with E. coli 13353, this molecule registered a minimum inhibitory concentration (MIC) of 1 µg/mL (≈ 2.62 µM). Moreover, the minimum inhibitory concentration (MIC) against E. coli 13352 came out at 2 µg/mL (≈ 5.23 µM). The molecule further had an MIC against K. pneumoniae H522 of 2 µg/mL (≈ 5.23 µM). The MIC in the data set on K. pneumoniae H525 stood at 2 µg/mL (≈ 5.23 µM). Moreover, the minimum inhibitory concentration (MIC) in data set [1] was over 32 µg/mL. The molecule further displayed an MIC in the data set with K. pneumoniae H523 of 2 µg/mL (≈ 5.23 µM). Also, inhibition of growth with E. coli 7MP (MIC) required 2 µg/mL (≈ 5.23 µM). The molecule also yielded an MIC in the data set with E. coli M 50 of 1 µg/mL (≈ 2.62 µM). In the data set on E. coli 13351, this molecule came in with a minimal inhibitory concentration (MIC) of 1 µg/mL (≈ 2.62 µM). In the data set on K. pneumoniae H521, this molecule showed an MIC of 2 µg/mL (≈ 5.23 µM). Also, inhibition of growth in the data set with E. coli M 36 (MIC) required 1 µg/mL (≈ 2.62 µM). The molecule also showed an MIC with E. coli M 49 of 4 µg/mL (≈ 10.5 µM).
As to `O=C(NOC[C@@H]1C[C@H](F)CN1)[C@@H]1CC[C@@H]2CN1C(=O)N2OS(=O)(=O)O` [Example 1, (2S, 5R)-N-{[(2S, 4S)-4-fluoropyrrolidin-2-yl]methyloxy}-7-oxo-6-(sulfooxy)-1,6-diazabicyclo[3.2.1]octane-2-carboxamide], the melting point is 180 to 183 °C (dec.). Also, the minimum inhibitory concentration (MIC) in the data set on E. coli M 138 came out at 0.5 µg/mL (≈ 1.31 µM). Also, in the data set on E. coli 13353, it took 0.5 µg/mL (≈ 1.31 µM) to inhibit growth (MIC). Further, in the data set with E. coli 13352, 1 µg/mL (≈ 2.62 µM) was the least that counted as inhibitory (MIC). Moreover, the minimal inhibitory concentration (MIC) against K. pneumoniae H522 stood at 1 µg/mL (≈ 2.62 µM). The molecule also showed a minimum inhibitory concentration (MIC) against K. pneumoniae H525 of 0.5 µg/mL (≈ 1.31 µM). In [1], the MIC was over 32 µg/mL. In the data set on K. pneumoniae H523, it took 1 µg/mL (≈ 2.62 µM) to inhibit growth (MIC). This molecule showed a minimum inhibitory concentration (MIC) in the data set on E. coli 7MP of 1 µg/mL (≈ 2.62 µM). Besides, it took 0.5 µg/mL (≈ 1.31 µM) to inhibit growth with E. coli M 50 (MIC). Inhibition of growth in the data set on E. coli 13351 (MIC) required 0.5 µg/mL (≈ 1.31 µM). The lowest concentration to inhibit growth in the data set with K. pneumoniae H521 (MIC) was 1 µg/mL (≈ 2.62 µM). The minimal inhibitory concentration (MIC) against E. coli M 36 was found to be 0.25 µg/mL (≈ 0.654 µM). For the same molecule, inhibition of growth against E. coli M 49 (MIC) required 4 µg/mL (≈ 10.5 µM). Further, in data set [2] (2 hours, Compound of Formula (Ia) alone 4 μg/ml), the Bacterial count came to 7.78 Log10 CFU per ml. The Bacterial count in data set [2] (4 hours, Compound of Formula (Ia) alone 4 μg/ml) is listed as 6.74 Log10 CFU per ml. In addition, the Bacterial count in data set [2] (6 hours, Compound of Formula (Ia) alone 4 μg/ml) is 5.85 Log10 CFU per ml. Besides, the Bacterial count in data set [2] (8 hours, Compound of Formula (Ia) alone 4 μg/ml) turned out to be 6.13 Log10 CFU per ml.
In the case of `O=C(NOC[C@H]1C[C@@H](F)CN1)[C@@H]1CC[C@@H]2CN1C(=O)N2OS(=O)(=O)O` [Example 4, (2S, 5R)-N-{[(2R, 4R)-4-fluoropyrrolidin-2-yl]methyloxy}-7-oxo-6-(sulfooxy)-1,6-diazabicyclo[3.2.1]octane-2-carboxamide], the melting point was 207 to 209 °C (dec.). The molecule also displayed an MIC against E. coli M 138 of 2 µg/mL (≈ 5.23 µM). The molecule further came in with a minimal inhibitory concentration (MIC) with E. coli 13353 of 1 µg/mL (≈ 2.62 µM). In the data set with E. coli 13352, this molecule had a minimum inhibitory concentration (MIC) of 4 µg/mL (≈ 10.5 µM). The molecule also gave a minimum inhibitory concentration (MIC) with K. pneumoniae H522 of 4 µg/mL (≈ 10.5 µM). In the data set on K. pneumoniae H525, this molecule yielded an MIC of 2 µg/mL (≈ 5.23 µM). The molecule also registered an MIC in data set [1] of over 32 µg/mL. Moreover, in the data set on K. pneumoniae H523, it took 4 µg/mL (≈ 10.5 µM) to inhibit growth (MIC). The molecule further registered an MIC in the data set with E. coli 7MP of 4 µg/mL (≈ 10.5 µM). For the same molecule, the lowest concentration to inhibit growth against E. coli M 50 (MIC) was 2 µg/mL (≈ 5.23 µM). The molecule also returned an MIC against E. coli 13351 of 2 µg/mL (≈ 5.23 µM). Besides, the lowest concentration to inhibit growth in the data set with K. pneumoniae H521 (MIC) was 4 µg/mL (≈ 10.5 µM). Also, the MIC against E. coli M 36 was 1 µg/mL (≈ 2.62 µM). The molecule further gave a minimum inhibitory concentration (MIC) in the data set on E. coli M 49 of 4 µg/mL (≈ 10.5 µM).
For `CC(C)(O/N=C(\C(=O)N[C@@H]1C(=O)N2C(C(=O)[O-])=C(C[n+]3ccccc3)CS[C@H]12)c1csc(N)n1)C(=O)O` [Ceftazidime], the Bacterial count is 7.81 Log10 CFU per ml in data set [2] (setting [3]), 8.90 Log10 CFU per ml in [2] (setting [4]), 9.0 Log10 CFU per ml in data set [2] (setting [5]) and 8.92 Log10 CFU per ml in data set [2] (setting [6]).
For the molecule `C=CC1=C(C(=O)O)N2C(=O)[C@@H](NC(=O)/C(=N\OCC(=O)O)c3csc(N)n3)[C@H]2SC1` [Cefixime], the Bacterial count worked out at 7.85 Log10 CFU per ml in data set [2] (setting [3]), 8.90 Log10 CFU per ml in data set [2] (setting [4]), 8.78 Log10 CFU per ml in data set [2] (setting [5]) and 9.04 Log10 CFU per ml in data set [2] (setting [6]).

(Values after patent US10500195B2, “Antibacterial compounds” (WOCKHARDT LIMITED, priority 2017, dated 2019).)
